Measured values published in publication PMC8694143 (Microbiology Spectrum, 2021).

Tests used:
Test in all cases: MIC determination in broth
Format in all cases: cell-based, Staphylococcus aureus
[1] = test system: S. aureus ATCC 29213; conditions: STIP3 variants, highest conc. tested 100 μg/mL; cation-adjusted MH broth, ~10^5 CFU/mL, 2-fold dilution series, 37°C, 16 h
Procedure: (§1) M. luteus ATCC 4698, S. aureus ATCC 29213, a panel of 7 MRSA (ATCC MP-2) strains, which includes ATCC BAA-41, BAA-42, BAA-44, BAA-1683, BAA-2094, BAA-2313, and 33592, and a series of additional bacterial isolates from human and veterinary cases were used in this study (Table S6). Bacterial strains were routinely grown in lysogeny broth (LB: 10 g/L tryptone, 5 g/L yeast extract, 10 g/L NaCl) at 30°C (M. luteus) or 37°C (Staphylococcus spp.) prior to use in specific experiments described below.
(§2) The MICs were measured for bioactive peptides identified from the initial screen. Cation-adjusted Mueller-Hinton (MH) broth was used as the growth medium for MIC determination experiments. Bacterial cultures were diluted to an OD of 5 × 10^−4 (∼10^5 CFU/mL) in 200 μL MH broth mixed with peptides in a 2-fold dilution series arrayed in 96-well plates. Plates were incubated without shaking at 30 or 37°C depending on the organism.

[2] = test system: MRSA ATCC BAA-44; conditions: STIP3 variants, highest conc. tested 100 μg/mL; cation-adjusted MH broth, ~10^5 CFU/mL, 2-fold dilution series, 37°C, 16 h
Procedure: as §1, §2

[3] = test system: MRSA ATCC BAA-42; conditions: STIP3 variants, highest conc. tested 100 μg/mL; cation-adjusted MH broth, ~10^5 CFU/mL, 2-fold dilution series, 37°C, 16 h
Procedure: as §1, §2

[4] = test system: MRSA ATCC BAA-1683; conditions: STIP3 variants, highest conc. tested 100 μg/mL; cation-adjusted MH broth, ~10^5 CFU/mL, 2-fold dilution series, 37°C, 16 h
Procedure: as §1, §2

[5] = test system: MRSA ATCC BAA-2313; conditions: STIP3 variants, highest conc. tested 100 μg/mL; cation-adjusted MH broth, ~10^5 CFU/mL, 2-fold dilution series, 37°C, 16 h
Procedure: as §1, §2

[6] = test system: MRSA ATCC 33592; conditions: Table S5; STIP3 variants, highest conc. tested 100 μg/mL; cation-adjusted MH broth, ~10^5 CFU/mL, 2-fold dilution series, 37°C, 16 h
Procedure: as §1, §2

[7] = test system: MRSA ATCC BAA-2094; conditions: STIP3 variants, highest conc. tested 100 μg/mL; cation-adjusted MH broth, ~10^5 CFU/mL, 2-fold dilution series, 37°C, 16 h
Procedure: as §1, §2

[8] = test system: MRSA ATCC BAA-41; conditions: STIP3 variants, highest conc. tested 100 μg/mL; cation-adjusted MH broth, ~10^5 CFU/mL, 2-fold dilution series, 37°C, 16 h
Procedure: as §1, §2

Substance | MIC, S. aureus ATCC 29213 [1] | MIC, S. aureus ATCC BAA 44 (SCCmec I) [2] | MIC, S. aureus ATCC BAA 42 (SCCmec VI) [3] | MIC, S. aureus ATCC BAA 1683 (SCCmec IV) [4] | MIC, S. aureus ATCC BAA 2313 (SCCmec XI) [5] | MIC, S. aureus ATCC 33592 (SCCmec III) [6] | MIC, S. aureus ATCC BAA 2094 (SCCmec V) [7] | MIC, S. aureus ATCC BAA 41 (SCCmec II) [8]
TVAGLVKWILATVKKFA [STIP3-15, rationally designed STIP3-1 variant] | 25 µg/mL | 25 µg/mL | 50 µg/mL | 25 µg/mL | 50 µg/mL | 12.5 µg/mL | 25 µg/mL | 50 µg/mL
TVDGLVKWILATVKKFA [STIP3-17, rationally designed STIP3-1 variant] | > (The > symbol indicates that no inhibition was observed at 100 μg/mL for the STIP3 variants) | > (The > symbol indicates that no inhibition was observed at 100 μg/mL for the STIP3 variants) | > (The > symbol indicates that no inhibition was observed at 100 μg/mL for the STIP3 variants) | > (The > symbol indicates that no inhibition was observed at 100 μg/mL for the STIP3 variants) | > (The > symbol indicates that no inhibition was observed at 100 μg/mL for the STIP3 variants) | > (The > symbol indicates that no inhibition was observed at 100 μg/mL for the STIP3 variants) | > (The > symbol indicates that no inhibition was observed at 100 μg/mL for the STIP3 variants) | > (The > symbol indicates that no inhibition was observed at 100 μg/mL for the STIP3 variants)
TVGGLVKWILAAVKKFA [STIP3-12, rationally designed STIP3-1 variant] | 25 µg/mL | 25 µg/mL | 25 µg/mL | 25 µg/mL | 25 µg/mL | 25 µg/mL | 50 µg/mL | 25 µg/mL
TVGGLVKWILDTFKKFA [STIP3-11, rationally designed STIP3-1 variant] | 50 µg/mL | 100 µg/mL | 50 µg/mL | 50 µg/mL | 100 µg/mL | 50 µg/mL | 100 µg/mL | 50 µg/mL
TVGGLVKWILDTVKKFA-NH2 [STIP3-27, C-terminally amidated STIP3-1] | 50 µg/mL | 25 µg/mL | 25 µg/mL | 25 µg/mL | 50 µg/mL | 50 µg/mL | 25 µg/mL | 25 µg/mL
TVGGLVKWILDVVKKFA [STIP3-9, rationally designed STIP3-1 variant] | 25 µg/mL | 25 µg/mL | 25 µg/mL | 25 µg/mL | 25 µg/mL | 25 µg/mL | 25 µg/mL | 35 µg/mL
TVGGLVKWILDWVKKFA [STIP3-10, rationally designed STIP3-1 variant] | 100 µg/mL | 200 µg/mL | 25 µg/mL | > (The > symbol indicates that no inhibition was observed at 100 μg/mL for the STIP3 variants) | 50 µg/mL | 100 µg/mL | 100 µg/mL | 100 µg/mL
TVGGLVKWILKAVKKFA [STIP3-13, rationally designed STIP3-1 variant] | 25 µg/mL | 25 µg/mL | 25 µg/mL | 25 µg/mL | 25 µg/mL | 25 µg/mL | 25 µg/mL | 12.5 µg/mL
TVGGLVKWILKTVKKFA [STIP3-3, rationally designed STIP3-1 variant] | 25 µg/mL | 25 µg/mL | 50 µg/mL | 50 µg/mL | 50 µg/mL | 25 µg/mL | 25 µg/mL | 25 µg/mL
TVGGLVKWILNTVKKFA [STIP3-4, rationally designed STIP3-1 variant] | 100 µg/mL | 50 µg/mL | 50 µg/mL | 100 µg/mL | 100 µg/mL | 50 µg/mL | 50 µg/mL | 50 µg/mL
TVGVLVKWILNVVAKFA [STIP3-24, rationally designed STIP3-1 variant] | > (The > symbol indicates that no inhibition was observed at 100 μg/mL for the STIP3 variants) | > (The > symbol indicates that no inhibition was observed at 100 μg/mL for the STIP3 variants) | > (The > symbol indicates that no inhibition was observed at 100 μg/mL for the STIP3 variants) | > (The > symbol indicates that no inhibition was observed at 100 μg/mL for the STIP3 variants) | > (The > symbol indicates that no inhibition was observed at 100 μg/mL for the STIP3 variants) | > (The > symbol indicates that no inhibition was observed at 100 μg/mL for the STIP3 variants) | > (The > symbol indicates that no inhibition was observed at 100 μg/mL for the STIP3 variants) | > (The > symbol indicates that no inhibition was observed at 100 μg/mL for the STIP3 variants)
TVKALVKWILKTVAKFA [STIP3-19, rationally designed STIP3-1 variant] | 50 µg/mL | 25 µg/mL | 50 µg/mL | 25 µg/mL | 25 µg/mL | 25 µg/mL | 25 µg/mL | 50 µg/mL
TVKALVKWILKTVAKFW [STIP3-21, rationally designed STIP3-1 variant] | 25 µg/mL | 25 µg/mL | 25 µg/mL | 12.5 µg/mL | 12.5 µg/mL | 25 µg/mL | 12.5 µg/mL | 25 µg/mL
